Measured values published in US7192941B2, “Estradiol metabolites for the treatment of pulmonary hypertension” (priority 2003, dated 2007).

Columns and labels:
Type in all cases: in vivo, male Sprague Dawley rats
[1] = test system: proliferating cell nuclear antigen (PCNA); assay: Cell proliferation (PCNA immunostaining) in lungs, right ventricle and main pulmonary artery of monocrotaline-treated rats; conditions: vs MCT group, 10 μg/kg/hour, 21 days, p<0.001; for inhibition of proliferative response (PCNA staining) in the lungs: FIG. 6A; for inhibition of proliferative response (PCNA staining) in the right ventricle: FIG. 6B; for inhibition of proliferative response (PCNA staining) in the main pulmonary artery: FIG. 6C
Method: (§1) A total of twenty-seven, male Sprague Dawley rats (Charles River, Wilmington, Mass.) (378 +/−12 grams) were utilized in this experiment. Animals were housed in the University of Pittsburgh Medical Center animal care facility (temperature 22° C., light cycle 12 hours, relative humidity 55%). Animals were fed Pro Lab RHM 3000 rodent diet (PMI Nutrition, Inc, St Louis, Mo.) and were given water ad libitum. Institutional guidelines for animal welfare were followed, and the Animal Care and Use Committee approved experimental protocols.
(§2) Animals were randomly assigned to receive subcutaneously saline (1 ml/kg, n=6) or monocrotaline (Sigma, St Louis, Mo.) (MCT, 60 mg/kg subcutaneously) (n=21). Monocrotaline is an agent known to induce pulmonary hypertension. Six hours after the initial injection, control animals were implanted with osmotic minipumps (model 2ML4, Alza, Palo Alto, Calif.) containing vehicle (polyethylene glycol 400, 2.5 μl/hour) (Sigma, St Louis, Mo.), whereas MCT treated animals were implanted with osmotic minipumps containing either vehicle (MCT group; n=7), 2-hydroxyestradiol (Steraloids, Newport, R.I.) (10 μg/kg/hour, MCT+2HE group, n=7) or 2-methoxyestradiol (Steraloids, Newport, R.I.) (10 μg/kg/hour, MCT+2ME group, n=7). Assignment to the MCT, MCT+2HE, and MCT+2ME groups was conducted randomly.
The fixed specimens were embedded in paraffin and cut into 4-micron-thick sections for subsequent light microscopy and immunohistochemical analysis.
For the assessment of proliferation, the proliferating cell nuclear antigen (PCNA) was labeled using the primary monoclonal mouse antibody ( 1/200 dilution; Dako, Carpenteria, Calif.) and VEGF expression was measured using a rabbit polyclonal antibody ( 1/50 dilution, Lab Vision, Fremont, Calif.). A polyclonal ED1 antibody (Serotec, Raleigh, N.C.) specific for the monocyte/macrophage cytoplasmatic antigen was used to label vascular (main pulmonary artery) and pulmonary macrophages. For measurement of nonspecific staining, the primary antibody was replaced with phosphate buffered saline (PBS). Sections were washed and further developed according to the directions of the manufacturer (Dako Corporation, Carpinteria, Calif.) using the LSAB2 kit that contained a second antibody linked to […]. Immunochemical staining for PCNA and VEGF were assessed quantitatively with a SAMBA 4000 image analyzer (Image Products International, Chantilly, Va.) using specialized computer software designed for immunostaining analysis (Immuno-Analysis, version 4.1, Microsoft, Richmond, Wash.). The software set density threshold values by averaging several fields on the negative control tissues in which the primary antibody was replaced with PBS. Background subtraction was then performed on every tissue. Ten high power fields (×400) were assessed for staining density, wall thickness or positively marked cells for ED-1. The results for PCNA and VEGF are reported as the labeling index, which represents the percentage of the total examined area that stained positively. Staining intensity of positive areas was also assessed (mean optical density), and a mean quick score was then calculated (mean optical density×labeling index). The inflammatory response data are expressed as the total number of ED1+ cells per ten high power fields
Statistical analyses were performed using the Number Cruncher Statistical software program (Kaysville, Utah). Group comparisons were performed by a one-factor analysis of variance (1-F ANOVA), followed by post-hoc comparison using the Fisher's LSD test. All data are presented as mean ±S.E.M.

[2] = test system: vascular endothelial growth factor (VEGF) expression; assay: VEGF expression (immunohistochemistry) in lungs of monocrotaline-treated rats; conditions: MCT rats, 10 μg/kg/hour, 21 days, mean ±S.E.M., Control 34.2±2.2, MCT 42.8±2.6, p=0.482
Method: as §1
Animals were randomly assigned to receive subcutaneously saline (1 ml/kg, n=6) or monocrotaline (Sigma, St Louis, Mo.) (MCT, 60 mg/kg subcutaneously) (n=21). […]
For the assessment of proliferation, the proliferating cell nuclear antigen (PCNA) was labeled using the primary monoclonal mouse antibody ( 1/200 dilution; Dako, Carpenteria, Calif.) and VEGF expression was measured using a rabbit polyclonal antibody ( 1/50 dilution, Lab Vision, Fremont, Calif.). […] Immunochemical staining for PCNA and VEGF were assessed quantitatively with a SAMBA 4000 image analyzer (Image Products International, Chantilly, Va.) using specialized computer software designed for immunostaining analysis (Immuno-Analysis, version 4.1, Microsoft, Richmond, Wash.). […] Ten high power fields (×400) were assessed for staining density, wall thickness or positively marked cells for ED-1. […]

[3] = test system: monocrotaline-induced pulmonary hypertension; assay: Monocrotaline-induced pulmonary hypertension in rats: organ weights and hemodynamics (central venous pressure); conditions: MCT 60 mg/kg s.c., 10 μg/kg/hour by osmotic minipump, 21 days; for adverse consequences associated with monocrotaline treatment (pulmonary hypertension, increased lung weight, cardiac hypertrophy, right ventricular hypertrophy): FIGS. 1-4
Method: as §1, §2
After 21 days animals were weighed, anesthetized with pentobarbital (Sigma, St Louis, Mo.) (50 mg/kg) intraperitoneally, and instrumented for measurements of blood pressure, heart rate and central venous pressure. A PE-50 catheter was inserted into the right jugular vein and advanced approximately one inch and connected to a low-pressure analyzer (LPA, Micro-Med., Inc., Louisville Ky.) for continuous measurements of central venous pressure. […]
Animals were killed by an overdose of anesthetic, and the heart and lungs were removed and weighed. […] Both ventricles were weighed and the right ventricle to left ventricle plus septum ratio was calculated. […]

[4] = test system: small size pulmonary arteries; assay: Vascular remodeling: wall/media thickness of small size pulmonary arteries (smooth muscle alpha-actin staining) in monocrotaline-treated rats; conditions: vs MCT group (wall thickness increased by 87% vs control); 10 μg/kg/hour, 21 days; p<0.001; FIG. 9
Method: as §1
Animals were randomly assigned to receive subcutaneously saline (1 ml/kg, n=6) or monocrotaline (Sigma, St Louis, Mo.) (MCT, 60 mg/kg subcutaneously) (n=21). Monocrotaline is an agent known to induce pulmonary hypertension. […]
For assessment of vascular remodeling, vascular smooth muscle cells in pulmonary arteries were stained with smooth muscle alpha-actin Ab-1 mouse monoclonal antibody ( 1/100 dilution, Lab Vision, Fremont, Calif.). The wall and media thickness were measured in small size pulmonary arteries (50–200 microns) using commercial imaging software. Only vessels with an approximately circular profile were analyzed. […]

Compound	inhibition of proliferative response (PCNA staining) in the lungs [1]	inhibition of proliferative response (PCNA staining) in the right ventricle [1]	inhibition of proliferative response (PCNA staining) in the main pulmonary artery [1]	VEGF labeling index (percent of the lung tissue stained positive for VEGF) [2]	central venous pressure ([3]; FIG. 5)	adverse consequences associated with monocrotaline treatment (pulmonary hypertension, increased lung weight, cardiac hypertrophy, right ventricular hypertrophy) [3]	attenuation of MCT-induced hypertrophy of the media (wall thickness, small size pulmonary arteries) [4]
COc1cc2c(cc1O)CC[C@@H]1[C@@H]2CC[C@]2(C)[C@@H](O)CC[C@@H]12 [2ME, estra-1,3,5 (10)-triene-2-methoxy-3, 17-diol (17β)]	−70%	−77%	−94%	37.6±3.9%	especially effective at reducing central venous pressure	did not demonstrate the same level of adverse consequences	−40%
C[C@]12CC[C@@H]3c4cc(O)c(O)cc4CC[C@H]3[C@@H]1CC[C@@H]2O [2HE, estra-1,3,5 (10)-triene-2,3,17-triol (17β)]	−60%	−81%	−83%	37.6±3.3%	–	did not demonstrate the same level of adverse consequences	−50%
